Test results reported in ChEMBL document CHEMBL5034014, “Melanocortin 1 Receptor Agonists Based on a Bivalent, Bicyclic Peptide Framework” (J Med Chem, 2021).
Bridge positions count the residues as written; N and C are the ends. Square brackets hold non-standard residues; d marks the D form. Peptide text beside a SMILES is read from it. NMeW = CN[C@@H](Cc1c[nH]c2ccccc12)C(=O)O; NMeR = CN[C@@H](CCCNC(=N)N)C(=O)O

Assays:
[1] = target: T1, Melanocyte-stimulating hormone receptor (Homo sapiens, UniProt Q01726); assay: Agonist activity at human melanocortin receptor 1 expressed in human T-Rex-293 cells assessed as stimulation of intracellular cAMP accumulation incubated for 45 mins by LANCE cAMP assay; assay type: functional, cell-based
T1 sequence (Q01726 whole entry): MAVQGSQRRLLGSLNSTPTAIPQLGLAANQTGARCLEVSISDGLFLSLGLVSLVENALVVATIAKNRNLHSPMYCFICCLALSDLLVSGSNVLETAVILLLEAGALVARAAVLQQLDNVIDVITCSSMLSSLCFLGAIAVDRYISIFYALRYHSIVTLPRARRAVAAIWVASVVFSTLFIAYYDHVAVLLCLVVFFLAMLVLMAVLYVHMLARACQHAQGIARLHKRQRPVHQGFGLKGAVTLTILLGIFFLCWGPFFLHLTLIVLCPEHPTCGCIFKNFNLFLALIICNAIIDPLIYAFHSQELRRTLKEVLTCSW

[2] = target: T2, Melanocortin receptor 3 (Homo sapiens, UniProt P41968); assay: Agonist activity at human melanocortin receptor 3 expressed in human T-REx-293 cells assessed as stimulation of intracellular cAMP accumulation incubated for 45 mins by LANCE cAMP assay; assay type: functional, cell-based
T2 sequence (P41968 whole entry): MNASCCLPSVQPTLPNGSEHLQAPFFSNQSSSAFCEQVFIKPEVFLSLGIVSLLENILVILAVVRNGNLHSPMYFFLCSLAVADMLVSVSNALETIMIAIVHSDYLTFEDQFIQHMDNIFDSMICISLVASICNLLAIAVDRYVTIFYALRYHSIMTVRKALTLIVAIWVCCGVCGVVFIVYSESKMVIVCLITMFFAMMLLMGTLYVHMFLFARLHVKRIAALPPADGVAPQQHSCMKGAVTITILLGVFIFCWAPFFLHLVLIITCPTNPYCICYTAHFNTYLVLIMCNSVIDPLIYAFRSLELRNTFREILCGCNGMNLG

[3] = target: T3, Melanocortin receptor 4 (Homo sapiens, UniProt P32245); assay: Agonist activity at human melanocortin receptor 4 expressed in human T-REx-293 cells using low doxycycline assessed as stimulation of intracellular cAMP accumulation incubated for 45 mins by LANCE cAMP assay; assay type: functional, cell-based
T3 sequence (P32245 whole entry): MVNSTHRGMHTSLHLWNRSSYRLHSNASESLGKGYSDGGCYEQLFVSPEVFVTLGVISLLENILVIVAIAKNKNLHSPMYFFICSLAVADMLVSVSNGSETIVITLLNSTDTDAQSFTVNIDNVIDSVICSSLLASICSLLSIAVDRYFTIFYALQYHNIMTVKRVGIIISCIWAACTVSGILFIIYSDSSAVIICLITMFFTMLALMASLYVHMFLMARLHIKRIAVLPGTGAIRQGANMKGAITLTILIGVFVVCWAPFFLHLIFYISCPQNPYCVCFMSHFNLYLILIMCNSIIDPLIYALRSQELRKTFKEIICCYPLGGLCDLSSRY

[4] = target: T1, Melanocyte-stimulating hormone receptor; assay: Displacement of [125I]-NDP-alpha-MSH from human MC1R expressed in HEK2936E cell membrane measured after 16-23 hrs by 1450 microbeta trilux scintillation proximity assay; assay type: cell membranes
[5] = target: T2, Melanocortin receptor 3; assay: Displacement of [125I]-NDP-alpha-MSH from human MC3R expressed in HEK2936E cell membrane measured after 16-23 hrs by 1450 microbeta trilux scintillation proximity assay; assay type: cell membranes
[6] = target: T3, Melanocortin receptor 4; assay: Displacement of [125I]-NDP-alpha-MSH from human MC4R expressed in HEK2936E cell membrane measured after 16-23 hrs by 1450 microbeta trilux scintillation proximity assay; assay type: cell membranes
[7] = target: Melanocortin receptor 5 (Homo sapiens, UniProt P33032); assay: Displacement of [125I]-NDP-alpha-MSH from human MC5R expressed in HEK2936E cell membrane measured after 16-23 hrs by 1450 microbeta trilux scintillation proximity assay; assay type: cell membranes
Chain of Melanocortin receptor 5 (P33032 whole entry): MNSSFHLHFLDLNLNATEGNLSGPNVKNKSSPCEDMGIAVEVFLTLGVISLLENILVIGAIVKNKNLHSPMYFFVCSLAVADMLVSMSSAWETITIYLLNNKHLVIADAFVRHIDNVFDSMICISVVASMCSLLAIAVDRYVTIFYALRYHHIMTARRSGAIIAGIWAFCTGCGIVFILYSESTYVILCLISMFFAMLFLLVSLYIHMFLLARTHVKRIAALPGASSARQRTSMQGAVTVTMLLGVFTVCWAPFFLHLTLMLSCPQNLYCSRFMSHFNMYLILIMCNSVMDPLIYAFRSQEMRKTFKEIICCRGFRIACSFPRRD

[8] = target: T3, Melanocortin receptor 4; assay: Agonist activity at human melanocortin receptor 4 expressed in human T-REx-293 cells using high doxycycline assessed as stimulation of intracellular cAMP accumulation incubated for 45 mins by LANCE cAMP assay; assay type: functional

Compound | EC50 [1] [nM] | EC50 [2] [nM] | EC50 [3] [nM] | Ki [4] [nM] | Ki [5] [nM] | Ki [6] [nM] | IC50 [7] [nM] | EC50 [8] [nM]
CC(=O)N[C@H]1CSSC[C@@H](C(N)=O)NC(=O)[C@H](CCCNC(=N)N)NC(=O)[C@H](Cc2c[nH]c3ccccc23)N(C)C(=O)[C@H](CCCNC(=N)N)N(C)C(=O)[C@H](Cc2ccccc2)NC(=O)[C@H](Cc2c[nH]cn2)NC1=O (Ac-CHF[NMeR][NMeW]RC-NH2; disulfide 1-7) | 5.5 | 398 | 3630 | 56.2 | 3160 | 2040 | 10000 | 63.1
CC[C@H](C)[C@@H]1NC(=O)[C@@H]2CCCN2C(=O)[C@H](Cc2c[nH]c3ccccc23)NC(=O)[C@H](CCCNC(=N)N)N(C)C(=O)[C@@H](Cc2ccc3ccccc3c2)NC(=O)[C@@H]2CCCN2C(=O)[C@H](Cc2c[nH]c3ccccc23)NC(=O)[C@@H]2CSSC[C@H](NC1=O)C(=O)N[C@@H](Cc1c[nH]cn1)C(=O)N[C@H](Cc1ccccc1)C(=O)N[C@@H](CCCNC(=N)N)C(=O)N[C@@H](Cc1c[nH]c3ccccc13)C(=O)N[C@@H](C)C(=O)N2 | 1.55 | 13.5 | 31.6 | 9.77 | 407 | 7.94 | 204 | 1.05
CC[C@H](C)[C@@H]1NC(=O)[C@@H]2CCCN2C(=O)[C@H](Cc2c[nH]c3ccccc23)NC(=O)[C@H](CCCNC(=N)N)N(C)C(=O)[C@@H](Cc2ccccc2)NC(=O)[C@H](Cc2c[nH]cn2)NC(=O)[C@H]([C@@H](C)O)NC(=O)[C@@H]2CSSC[C@H](NC1=O)C(=O)N[C@@H](Cc1c[nH]cn1)C(=O)N[C@H](Cc1ccccc1)C(=O)N[C@@H](C)C(=O)N[C@@H](Cc1c[nH]c3ccccc13)C(=O)N[C@@H](CCCNC(=N)N)C(=O)N2 | 2.24 | 56.2 | 44.7 | 15.1 | 1150 | 91.2 | 589 | 2.19
CC[C@H](C)[C@@H]1NC(=O)[C@H](C)NC(=O)[C@H](Cc2c[nH]c3ccccc23)NC(=O)[C@H](CCCNC(=N)N)N(C)C(=O)[C@@H](Cc2ccccc2)NC(=O)[C@H](Cc2c[nH]cn2)NC(=O)[C@H]([C@@H](C)O)NC(=O)[C@@H]2CSSC[C@H](NC1=O)C(=O)N[C@@H](Cc1c[nH]cn1)C(=O)N[C@H](Cc1ccccc1)C(=O)N[C@@H](CCCNC(=N)N)C(=O)N[C@@H](Cc1c[nH]c3ccccc13)C(=O)N[C@@H](C)C(=O)N2 | 0.0912 | 1.15 | 1.23 | 1.41 | 107 | 25.7 | 170 | 0.132
CC[C@H](C)[C@@H]1NC(=O)[C@@H]2CCCN2C(=O)[C@@H]2CCCN2C(=O)[C@H]([C@@H](C)CC)NC(=O)[C@H](CO)NC(=O)[C@H](C)NC(=O)[C@H]([C@@H](C)O)NC(=O)[C@@H]2CSSC[C@H](NC1=O)C(=O)N[C@@H](Cc1c[nH]cn1)C(=O)N[C@H](Cc1ccccc1)C(=O)N(C)[C@@H](CCCNC(=N)N)C(=O)N(C)[C@@H](Cc1c[nH]c3ccccc13)C(=O)N[C@@H](CCCNC(=N)N)C(=O)N2 (cyclo(CTASIPPICH[dF][NMeR][NMeW]R); disulfide 1-9) | 0.759 | 129 | > 1000 | – | > 1000 | > 1000 | 724 | 58.9
CC[C@H](C)[C@@H]1NC(=O)[C@@H]2CCCN2C(=O)[C@H](Cc2c[nH]c3ccccc23)NC(=O)[C@H](CCCNC(=N)N)N(C)C(=O)[C@@H](Cc2ccccc2)NC(=O)[C@H](Cc2c[nH]cn2)NC(=O)[C@H](CC(=O)O)NC(=O)[C@@H]2CSSC[C@H](NC1=O)C(=O)N[C@@H](Cc1c[nH]cn1)C(=O)N[C@H](Cc1ccccc1)C(=O)N(C)[C@@H](CCCNC(=N)N)C(=O)N(C)[C@@H](Cc1c[nH]c3ccccc13)C(=O)N[C@@H](CCCNC(=N)N)C(=O)N2 | 0.11 | 11.2 | 22.9 | 0.794 | 479 | 138 | 2000 | 1.29
CC[C@H](C)[C@@H]1NC(=O)[C@@H]2CCCN2C(=O)[C@H](Cc2c[nH]c3ccccc23)NC(=O)[C@H](CCCNC(=N)N)N(C)C(=O)[C@@H](Cc2ccccc2)NC(=O)[C@H](Cc2c[nH]cn2)NC(=O)[C@H]([C@@H](C)O)NC(=O)[C@@H]2CSSC[C@H](NC1=O)C(=O)N[C@@H](Cc1c[nH]cn1)C(=O)N[C@H](Cc1ccccc1)C(=O)N[C@@H](CCCNC(=N)N)C(=O)N[C@@H](Cc1c[nH]c3ccccc13)C(=O)N[C@@H](CCCNC(=N)N)C(=O)N2 | 0.135 | 7.76 | – | 1.12 | 389 | – | 174 | –
C[C@@H]1NC(=O)[C@H](Cc2c[nH]c3ccccc23)NC(=O)[C@H](CCCNC(=N)N)NC(=O)[C@@H](Cc2ccccc2)NC(=O)[C@H](Cc2c[nH]cn2)NC(=O)[C@@H]2CSSC[C@H](NC1=O)C(=O)N[C@@H]([C@@H](C)O)C(=O)N[C@@H](Cc1c[nH]cn1)C(=O)N[C@H](Cc1ccccc1)C(=O)N(C)[C@@H](CCCNC(=N)N)C(=O)N[C@@H](Cc1c[nH]c3ccccc13)C(=O)N1CCC[C@H]1C(=O)N[C@@H](C)C(=O)N2 | 1.07 | 4.07 | – | 8.13 | 135 | – | 550 | –
CC[C@H](C)[C@@H]1NC(=O)[C@@H]2CCCN2C(=O)[C@H](Cc2c[nH]c3ccccc23)N(C)C(=O)[C@H](CCCNC(=N)N)NC(=O)[C@@H](Cc2ccccc2)NC(=O)[C@H](Cc2cnc[nH]2)NC(=O)[C@H]([C@@H](C)O)NC(=O)[C@@H]2CSSC[C@H](NC1=O)C(=O)N[C@@H](Cc1ccccc1)C(=O)N1CCC[C@H]1C(=O)N[C@@H](CC(=O)O)C(=O)NCC(=O)N[C@@H](CCCNC(=N)N)C(=O)N2 (cyclo(CFPDGRCTH[dF]R[NMeW]PI); disulfide 1-7) | 64.6 | 282 | 46.8 | 339 | > 1000 | 617 | 1000 | 3.09
CC[C@H](C)[C@@H]1NC(=O)[C@@H]2CCCN2C(=O)[C@H](Cc2c[nH]c3ccccc23)NC(=O)[C@H](CCCNC(=N)N)N(C)C(=O)[C@@H](Cc2ccccc2)NC(=O)[C@H](Cc2c[nH]cn2)NC(=O)[C@H]([C@@H](C)O)NC(=O)[C@@H]2CSSC[C@H](NC1=O)C(=O)N[C@@H](Cc1c[nH]cn1)C(=O)N[C@@H](C)C(=O)N[C@@H](CCCNC(=N)N)C(=O)N[C@@H](Cc1c[nH]c3ccccc13)C(=O)N[C@@H](CCCNC(=N)N)C(=O)N2 | 0.794 | 6.61 | 3.47 | 2.82 | 389 | 10.7 | 676 | 0.302
CN1C(=O)[C@@H](Cc2ccccc2)NC(=O)[C@H](Cc2c[nH]cn2)NC(=O)CNC(=O)[C@@H]2CSSC[C@H](NC(=O)[C@H](CCCNC(=N)N)NC(=O)[C@@H](CC(=O)O)NC(=O)[C@H](Cc3c[nH]c4ccccc34)NC(=O)[C@@H]1CCCNC(=N)N)C(=O)N[C@@H](Cc1c[nH]cn1)C(=O)N[C@H](Cc1ccccc1)C(=O)N(C)[C@@H](CCCNC(=N)N)C(=O)N(C)[C@@H](Cc1c[nH]c3ccccc13)C(=O)N[C@@H](CCCNC(=N)N)C(=O)N2 | 0.813 | 24 | 490 | 4.9 | 148 | 158 | 1510 | 10.5
CC[C@H](C)[C@@H]1NC(=O)[C@@H]2CCCN2C(=O)[C@H](Cc2c[nH]c3ccccc23)NC(=O)[C@H](CCCNC(=N)N)NC(=O)[C@@H](Cc2ccccc2)NC(=O)[C@H](Cc2c[nH]cn2)NC(=O)[C@H]([C@@H](C)O)NC(=O)[C@@H]2CSSC[C@H](NC1=O)C(=O)N[C@@H](Cc1c[nH]cn1)C(=O)N[C@H](Cc1ccccc1)C(=O)N[C@@H](CCCNC(=N)N)C(=O)N[C@@H](Cc1c[nH]c3ccccc13)C(=O)N[C@@H](CCCNC(=N)N)C(=O)N2 | 0.138 | 17.4 | – | 1.48 | 269 | – | 174 | –
CC[C@H](C)[C@@H]1NC(=O)[C@@H]2CCCN2C(=O)[C@H](Cc2c[nH]c3ccccc23)NC(=O)[C@H](CCCNC(=N)N)N(C)C(=O)[C@@H](Cc2ccc3ccccc3c2)NC(=O)[C@@H]2CCCN2C(=O)[C@@H]2CCCN2C(=O)[C@@H]2CSSC[C@H](NC1=O)C(=O)N[C@@H](Cc1c[nH]cn1)C(=O)N[C@H](Cc1ccccc1)C(=O)N[C@@H](CCCNC(=N)N)C(=O)N[C@@H](Cc1c[nH]c3ccccc13)C(=O)N[C@@H](C)C(=O)N2 | 1.32 | 15.8 | – | 3.72 | 100 | – | 129 | –
